{"source": "patent US11091497B2", "about": "“Pyrano[3,4-b]pyrazine kappa opioid receptor ligands for treating addiction, pruritus, pain, and inflammation” (The Rockefeller University, priority 2017, dated 2021)", "key": {"[1]": {"target": "T1, human kappa opioid receptors (Homo sapiens, UniProt P41145)", "T1 construct": "expressed in transfected cells; host or cells: U2OS", "T1 sequence (P41145 whole entry)": "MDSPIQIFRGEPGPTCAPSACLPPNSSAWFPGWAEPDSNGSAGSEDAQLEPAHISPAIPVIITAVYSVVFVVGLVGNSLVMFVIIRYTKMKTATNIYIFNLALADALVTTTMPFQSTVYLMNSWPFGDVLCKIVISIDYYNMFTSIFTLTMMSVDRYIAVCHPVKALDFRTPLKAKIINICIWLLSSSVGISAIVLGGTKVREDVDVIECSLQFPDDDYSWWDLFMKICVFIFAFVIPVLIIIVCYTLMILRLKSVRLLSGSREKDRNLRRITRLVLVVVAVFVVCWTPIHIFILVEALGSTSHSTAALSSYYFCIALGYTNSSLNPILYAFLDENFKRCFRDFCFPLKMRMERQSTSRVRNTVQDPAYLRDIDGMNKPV", "assay": "[35S]GTPγS stimulation, membranes from U2OS cells", "assay_type": "biochemical", "conditions": "for Emax: read-out: GTPγS stimulation % efficacy", "protocol": "Membranes from cells stably expressing kappa, mu or delta opioid receptor constructs (PathHunter U2OS hOPRK1, CHO-K1 rOPRM1 and CHO-K1 OPRD1 β-arrestin cell line, DiscoverX, Fremont, Calif., USA) were used. Cells were scraped from tissue culture plates, homogenized with a tissue tearor homogenizer in membrane buffer (10 mM Tris, 100 mM NaCl, and 1 mM EDTA; pH 7.4), and centrifuged at 20,000 g for 30 minutes at 4° C. and frozen at −80° C. until use. Prior to use, the pellets were resuspended in binding buffer (50 mm Tris, 100 mm NaCl, pH 7.4), homogenized with a dounce homogenizer and […] incubated with 1.0 nM of the appropriate tritiated ligand ([^3H]U69,593, [^3H]DAMGO or [^3H]DPDPE for kappa, mu or delta binding, respectively) and the appropriate concentration of compound for 60 minutes at 30° C. Membranes with bound tritiated ligand were collected on Whatman GF/B filter paper (Brandel, Gaithersburg, Md., USA) utilizing a Brandel harvester. Bound tritiated ligand was quantified using a TriCarb-2900TR scintillation counter (Packard, Downers Grove, Ill., USA) following addition of 4 ml ReadySafe scintillation fluid (Beckman Coulter, Indianapolis, Ind., USA). Compiled data for each compound was normalized to the maximal binding in the absence of compound, with non-specific binding subtracted. Curve fitting was done in Microcal Origin 17.0 software using logistic sigmoidal fit, to determine IC50. GTPgammaS Membranes from U2OS cells stably expressing human kappa opioid receptors were used. Cells were scraped from tissue culture plates, homogenized with a tissue tearor homogenizer in membrane buffer (10 mM Tris, 100 mM NaCl, and 1 mM EDTA; pH 7.4), and centrifuged at 20,000 g for 30 minutes at 4° C. and frozen at −80° C. until use. Prior to use, the pellets were resuspended in assay buffer (50 mm Tris, 100 mm NaCl, 5 mM MgCl2, and 1 mM EDTA; pH 7.4) and homogenized with a dounce homogenizer and 50 μg incubated with 0.1 nM [35 S]GTPγS, 10 nM GDP, and the appropriate concentration of agonist for 20 minutes at 30° C. To test inhibition, all samples were incubated with 100 nM U69,593 as well as the appropriate concentration of compound. Membranes with bound [35 S]GTPγS were collected on Whatman GF/B filter paper (Brandel, Gaithersburg, Md., USA) utilizing a Brandel harvester. Bound [35 S]GTPγS was quantified using a TriCarb-2900TR scintillation counter (Packard, Downers Grove, Ill., USA) following addition of 4 mL ReadySafe scintillation fluid (Beckman Coulter, Indianapolis, Ind., USA). […] For each compound, curve fitting was done in Microcal Origin 17.0 software using logistic sigmoidal fit, to determine EC50 and maximal percent stimulation, which in turn was normalized to the maximal percent stimulation of the test full agonist compound U69,593 to determine % efficacy. β2-Arrestin Experiments were conducted using the PathHunter Detection Kit obtained from DiscoverX. Cells stably expressing kappa, mu or delta opioid receptor constructs (PathHunter U2OS hOPRK1, CHO-K1 rOPRM1 and CHO-K1 OPRD1 β-arrestin cell line, DiscoverX, Fremont, Calif., USA) were plated in 96- or 384-well plates. Cells were stimulated with the compounds for 90 minutes at 37° C. To test inhibition, all samples were incubated with 100 nM U69,593 as well as the appropriate concentration of compound. Cells were then incubated for 60 minutes in the presence of galoctosidase substrate, yielding chemiluminescent product. Chemiluminescence was measured using a Synergy Neo microplate reader (BioTek, Winooski, Vt., USA). Antagonism assays were done in the same manner, in the presence of 300 nM U69,593, 1 μM DAMGO or 1 μM DPDPE for KOP-R, MOP-R or DOP-R assays, respectively."}, "[2]": {"target": "T2, kappa opioid receptor (PathHunter U2OS hOPRK1 β-arrestin cell line) (Homo sapiens, UniProt P41145)", "T2 construct": "host or cells: U2OS (PathHunter U2OS hOPRK1 β-arrestin cell line)", "T2 sequence (P41145 whole entry)": "as above", "assay": "β-arrestin coupling (PathHunter Detection Kit)", "assay_type": "cell-based", "conditions": "for Emax at 10 µM: U2OS, read-out: β-arrestin coupling % efficacy at 10 μM", "protocol": "(§1) Membranes from cells stably expressing kappa, mu or delta opioid receptor constructs (PathHunter U2OS hOPRK1, CHO-K1 rOPRM1 and CHO-K1 OPRD1 β-arrestin cell line, DiscoverX, Fremont, Calif., USA) were used. Cells were scraped from tissue culture plates, homogenized with a tissue tearor homogenizer in membrane buffer (10 mM Tris, 100 mM NaCl, and 1 mM EDTA; pH 7.4), and centrifuged at 20,000 g for 30 minutes at 4° C. and frozen at −80° C. until use. Prior to use, the pellets were resuspended in binding buffer (50 mm Tris, 100 mm NaCl, pH 7.4), homogenized with a dounce homogenizer and […] incubated with 1.0 nM of the appropriate tritiated ligand ([^3H]U69,593, [^3H]DAMGO or [^3H]DPDPE for kappa, mu or delta binding, respectively) and the appropriate concentration of compound for 60 minutes at 30° C. Membranes with bound tritiated ligand were collected on Whatman GF/B filter paper (Brandel, Gaithersburg, Md., USA) utilizing a Brandel harvester. Bound tritiated ligand was quantified using a TriCarb-2900TR scintillation counter (Packard, Downers Grove, Ill., USA) following addition of 4 ml ReadySafe scintillation fluid (Beckman Coulter, Indianapolis, Ind., USA). Compiled data for each compound was normalized to the maximal binding in the absence of compound, with non-specific binding subtracted. Curve fitting was done in Microcal Origin 17.0 software using logistic sigmoidal fit, to determine IC50. GTPgammaS Membranes from U2OS cells stably expressing human kappa opioid receptors were used. Cells were scraped from tissue culture plates, homogenized with a tissue tearor homogenizer in membrane buffer (10 mM Tris, 100 mM NaCl, and 1 mM EDTA; pH 7.4), and centrifuged at 20,000 g for 30 minutes at 4° C. and frozen at −80° C. until use. Prior to use, the pellets were resuspended in assay buffer (50 mm Tris, 100 mm NaCl, 5 mM MgCl2, and 1 mM EDTA; pH 7.4) and homogenized with a dounce homogenizer and 50 μg incubated with 0.1 nM [35 S]GTPγS, 10 nM GDP, and the appropriate concentration of agonist for 20 minutes at 30° C. To test inhibition, all samples were incubated with 100 nM U69,593 as well as the appropriate concentration of compound. Membranes with bound [35 S]GTPγS were collected on Whatman GF/B filter paper (Brandel, Gaithersburg, Md., USA) utilizing a Brandel harvester. Bound [35 S]GTPγS was quantified using a TriCarb-2900TR scintillation counter (Packard, Downers Grove, Ill., USA) following addition of 4 mL ReadySafe scintillation fluid (Beckman Coulter, Indianapolis, Ind., USA). […] NA indicates not applicable. For each compound, curve fitting was done in Microcal Origin 17.0 software using logistic sigmoidal fit, to determine EC50 and maximal percent stimulation, which in turn was normalized to the maximal percent stimulation of the test full agonist compound U69,593 to determine % efficacy. β2-Arrestin Experiments were conducted using the PathHunter Detection Kit obtained from DiscoverX. Cells stably expressing kappa, mu or delta opioid receptor constructs (PathHunter U2OS hOPRK1, CHO-K1 rOPRM1 and CHO-K1 OPRD1 β-arrestin cell line, DiscoverX, Fremont, Calif., USA) were plated in 96- or 384-well plates. Cells were stimulated with the compounds for 90 minutes at 37° C. To test inhibition, all samples were incubated with 100 nM U69,593 as well as the appropriate concentration of compound. Cells were then incubated for 60 minutes in the presence of galoctosidase substrate, yielding chemiluminescent product. Chemiluminescence was measured using a Synergy Neo microplate reader (BioTek, Winooski, Vt., USA). Antagonism assays were done in the same manner, in the presence of 300 nM U69,593, 1 μM DAMGO or 1 μM DPDPE for KOP-R, MOP-R or DOP-R assays, respectively. […] NA indicates not applicable. […]"}, "[3]": {"target": "T3, kappa opioid receptor (PathHunter U2OS hOPRK1 membranes) (Homo sapiens, UniProt P41145)", "T3 construct": "host or cells: U2OS (PathHunter U2OS hOPRK1 β-arrestin cell line)", "T3 sequence (P41145 whole entry)": "as above", "assay": "Tritiated U69,593 binding for KOP-R membranes", "protocol": "Tritiated U69,593 binding for KOP-R membranes; tritiated DAMGO binding for MOP-R membranes; and tritiated DPDPE binding for DOP-R membranes:\nas §1"}}, "data": [{"smiles": "O=C(Cc1ccc(Cl)c(Cl)c1)N1CCN(Cc2ccccc2)[C@H]2COC[C@@H](N3CCCC3)[C@@H]21", "note": "(single isomer, unassigned) [Example 5A53B]", "values": [{"measurement": "EC50", "setting": "[1]", "result": 4.8, "unit": "nM"}, {"measurement": "Emax", "setting": "[1]", "result": 58, "unit": "%"}, {"measurement": "Emax at 10 µM", "setting": "[2]", "result": 80, "unit": "%"}, {"measurement": "IC50", "setting": "[3]", "result": 44, "unit": "nM"}]}, {"smiles": "O=C(Cc1ccc(Cl)c(Cl)c1)N1CCN(CC2CCC2)[C@@H]2COC[C@H](N3CCCC3)[C@H]21", "note": "(single isomer, unassigned) [Example 5A55A]", "values": [{"measurement": "EC50", "setting": "[1]", "result": 30, "unit": "nM"}, {"measurement": "Emax", "setting": "[1]", "result": 84, "unit": "%"}, {"measurement": "β-arrestin coupling % efficacy", "setting": "[2]; maximal, normalized to U69,593, No stim = no stimulation at highest dose tested, 10,000 nM", "result": "No stim"}, {"measurement": "IC50", "setting": "[3]", "result": 94, "unit": "nM"}]}, {"smiles": "O=C(Cc1ccc(Cl)c(Cl)c1)N1CCN(CC2CCC2)[C@H]2COC[C@@H](N3CCCC3)[C@@H]21", "note": "(single isomer, unassigned) [Example 5A55B]", "values": [{"measurement": "EC50", "setting": "[1]", "result": 13, "unit": "nM"}, {"measurement": "Emax", "setting": "[1]", "result": 62, "unit": "%"}, {"measurement": "Emax at 10 µM", "setting": "[2]", "result": 80, "unit": "%"}, {"measurement": "IC50", "setting": "[3]", "result": 20, "unit": "nM"}]}, {"smiles": "CC(C)CN1CCN(C(=O)Cc2ccc(Cl)c(Cl)c2)[C@H]2[C@H]1COC[C@@H]2N1CCCC1", "note": "[Example 5A71]", "values": [{"measurement": "EC50", "setting": "[1]", "result": 14, "unit": "nM"}, {"measurement": "Emax", "setting": "[1]", "result": 93, "unit": "%"}, {"measurement": "Emax at 10 µM", "setting": "[2]", "result": 40, "unit": "%"}, {"measurement": "IC50", "setting": "[3]", "result": 27, "unit": "nM"}]}]}
